pEC50: −log10 of the molar value. Several values for one entry are separate records, joined by “and”; a condition that tells them apart may be missing. Equal entries are not always repeated. Where two headings read alike, the source gives them in different places.
Experiments:
HIV = assay: microbe, parasite or virus in culture; assay type: cell-based; details: Human immunodeficiency virus 1; MT4 system
HIV-1 (strain LAV) = assay: microbe, parasite or virus in culture; assay type: cell-based; details: Human immunodeficiency virus 1, PBMC; for inhibition at 0.001 µM / inhibition at 0.005 µM / inhibition at 0.01 µM / inhibition at 0.05 µM / inhibition at 0.1 µM / inhibition at 0.5 µM: read-out: % Inhibition (Corrected); for EC50: read-out: EC50:µM
Excerpt: It is often desirable to screen a number of racemic mixtures of nucleosides as a preliminary step to determine which warrant further resolution into enantiomerically enriched components and further evaluation of antiviral activity. The ability of nucleosides to inhibit HIV can be measured by various experimental techniques. The technique used herein, and described in detail below, measures the inhibition of viral replication in phytohemagglutinin (PHA) stimulated human peripheral blood mononuclear (PBM) cells infected with HIV-1 (strain LAV). The amount of virus produced is determined by measuring the virus-coded reverse transcriptase enzyme. The amount of enzyme produced is proportional to the amount of virus produced.
• A. Three-day-old phytohemagglutinin-stimulated PBM cells (10^6 cells/ml) from hepatitis B and HIV-1 seronegative healthy donors were infected with HIV-1 (strain LAV) at a concentration of about 100 times the 50% tissue culture infectious dose (TICD 50) per ml and cultured in the presence and absence of various concentrations of antiviral compounds. • B. Approximately one hour after infection, the medium, with the compound to be tested (2 times the final concentration in medium) or without compound, was added to the flasks (5 ml; final volume 10 ml). AZT was used as a positive control. • C. The cells were exposed to the virus (about 2 x 10^5 dpm/ml, as determined by reverse transcriptase assay) and then placed in a CO2 incubator. HIV-1 (strain LAV) was obtained from the Center for Disease Control, Atlanta, Georgia. The methods used for culturing the PBM cells, harvesting the virus and determining the reverse transcriptase activity were those described by McDougal et al. (J. Immun. Meth. 76, 171-183, 1985) and Spira et al. (J. Clin. Meth. 25, 97-99, 1987), except that fungizone was not included in the medium (see Schinazi, et al., Antimicrob. Agents Chemother. 32, 1784-1787 (1988); Id., 34:1061-1067 (1990)). • D. On day 6, the cells and supernatant were transferred to a 15 ml tube and centrifuged at about 900 g for 10 minutes. Five ml of supernatant were removed and the virus was concentrated by centrifugation at 40,000 rpm for 30 minutes (Beckman 70.1 Ti rotor). The solubilized virus pellet was processed for determination of the levels of reverse transcriptase. Results are expressed in dpm/ml of sampled supernatant. Virus from smaller volumes of supernatant (1 ml) can also be concentrated by centrifugation prior to solubilization and determination of reverse transcriptase levels.

2.2.15 cells = assay: Toxicity analysis in 2.2.15 cells, neutral red dye uptake; assay type: cell-based, human; details: 330 µM
Experimental: (§1) Toxicity analyses were performed to assess whether any observed antiviral effects were due to a general effect on cell viability. The method used herein was the measurement of the uptake of neutral red dye, a standard and widely used assay for cell viability in a variety of virus-host systems, including HSV and HIV. Toxicity analyses were performed in 96-well flat bottomed tissue culture plates. Cells for the toxicity analyses were cultured and treated with test compounds with the same schedule as described for the antiviral evaluations below. Each compound was tested at 4 concentrations, each in triplicate cultures (wells "A", "B", and "C"). Uptake of neutral red dye was used to determine the relative level of toxicity. The absorbance of internalized dye at 510 nm (Asin) was used for the quantitative analysis. Values are presented as a percentage of the average Asin values in 9 separate cultures of untreated cells maintained on the same 96-well plate as the test compounds. Dye uptake in the 9 control cultures on plate 5 ranged from 91.6% to 110.4%, and on plate 6 from 96.6% to 109%.

[1] = as above; assay type: cell-based, human; details: human, 2.2.15 cells
Experimental: as §1

[2] = Growth inhibition of mitogen-stimulated uninfected human PBM cells, trypan blue exclusion; assay type: cell-based; details: human, pbm cells
[3] = system: granulocyte-macrophage precursor cells; details: compared with the (+)-enantiomer and AZT; Figure 12
HIV-2 = assay: microbe, parasite or virus in culture; details: Human immunodeficiency virus 2, PBMC
Experimental: Cell lines were obtained from either human donors, AIDS Research and Reference Reagent Program, NIH, Rockville, Maryland, ATCC, or the Red Cross. The CEM thymidine kinase deficient cells were prepared by sequential passage of CEM cells in the presence of 5-bromo-2'-deoxyuridine.

HBV = details: for INT[…] DNA RI: HBV DNA replication intermediates; for inhibition of the replication of HBV: at the tested levels (Table 7, 10 µM)
Experimental: A summary and description of the assay for antiviral effects in this culture system and the analysis of HBV DNA has been described (Korba and Milman, 1991, Antiviral Res., 15:217). The antiviral evaluations were performed on two separate passages of cells. All wells, in all plates, were seeded at the same density and at the same time.
Due to the inherent variations in the levels of both intracellular and extracellular HBV DNA, only depressions greater than 3.5-fold (for HBV virion DNA) or 3.0-fold (for HBV DNA replication intermediates) from the average levels for these HBV DNA forms in untreated cells are considered to be statistically significant [P<0.05]. The levels of integrated HBV DNA in each cellular DNA preparation (which remain constant on a per cell basis in these experiments) were used to calculate the levels of intracellular HBV DNA forms, thereby ensuring that equal amounts of cellular DNA were compared between separate samples.

[4] = system: uninfected human PBM cells; assay: Growth inhibition of mitogen-stimulated uninfected human PBM cells, trypan blue exclusion; assay type: cell-based; details: uninfected human PBM cells, 6 days; error estimated at ±10%; read-out: Cytotoxicity IC50
[5] = read-out: DYE UPTAKE (% OF CONTROL) WELL A
[6] = read-out: DYE UPTAKE (% OF CONTROL) WELL C
[7] = read-out: DYE UPTAKE (% OF CONTROL) WELLB

SMILES: CCCC(=O)OC[C@@H]1O[C@H](n2cc(F)c(N)nc2=O)CS1 (racemic) [5'-O-butyrate ester of (±)-FTC]
- pEC50 (HIV): 7.40
- pEC50 (HIV-1 (strain LAV)): 8.77

SMILES: CC(=O)Nc1nc(=O)n([C@@H]2CS[C@H](CO)O2)cc1F (racemic) [N^4-acetyl derivative of (±)-FTC]
- pEC50 (HIV-1 (strain LAV)): 8.55

SMILES: Nc1nc(=O)n([C@@H]2CS[C@H](CO)O2)cc1F (single isomer, unassigned) [(-)-FTC, (-)-β-L-2-hydroxymthyl-5-(5-fluorocytosin-1-yl)-1,3-oxathiolane]
- toxicity at the highest concentration used for the toxicity tests (2.2.15 cells): appeared to be toxic
- viability at 10 µM [1, 5]: 94.3%
- viability at 10 µM [1, 6]: 92.2%
- viability at 10 µM [1, 7]: 94.9%
- viability at 30 µM [1, 5]: 98.7%
- viability at 30 µM [1, 6]: 96.4%
- viability at 30 µM [1, 7]: 94.3%
- viability at 100 µM [1, 5]: 64.1%
- viability at 100 µM [1, 6]: 77.6%
- viability at 100 µM [1, 7]: 66.6%
- viability at 300 µM [1, 5]: 53%
- viability at 300 µM [1, 6]: 51.5%
- viability at 300 µM [1, 7]: 51.1%
- CC50 at 144 h [2]: > 100 µM
- toxicity (IC50) on colony formation [3]: less toxic
- pEC50 (HIV-2): 9.15
- inhibition at 0.001 µM (HIV-1 (strain LAV)): 23.8%
- inhibition at 0.005 µM (HIV-1 (strain LAV)): 43.3%
- inhibition at 0.01 µM (HIV-1 (strain LAV)): 24.8%
- inhibition at 0.05 µM (HIV-1 (strain LAV)): 76.2%
- inhibition at 0.1 µM (HIV-1 (strain LAV)): 93.5%
- inhibition at 0.5 µM (HIV-1 (strain LAV)): 97.6%
- pEC50 (HIV-1 (strain LAV); read-out: Antiviral EC50): 8.10
- pEC50 (HIV-1 (strain LAV); read-out: EC50): 8.11
- EC50 (HIV-1 (strain LAV)): 0.02 µM
- HBV VIRION DNA DAY 0 (HBV; 0.25 µM, replicate wells): 89 pg/ml CULTURE MEDIUM
- HBV VIRION DNA DAY 4 (HBV; 0.25 µM, replicate wells): 15 pg/ml CULTURE MEDIUM
- INT[…] DNA RI (HBV; 1 µM, 24 hours following the 9th day of treatment): 2 pg/µg CELL DNA and 3 pg/µg CELL DNA and 4 pg/µg CELL DNA
- HBV VIRION DNA DAY 0 (HBV; 1 µM, replicate wells): 89 pg/ml CULTURE MEDIUM
- HBV VIRION DNA DAY 4 (HBV; 1 µM, replicate wells): 15 pg/ml CULTURE MEDIUM and 22 pg/ml CULTURE MEDIUM
- INT[…] DNA MONO. (HBV; 1 µM, episomal 3.2 kb HBV genomes, 24 hours following the 9th day of treatment): 1.7 pg/µg CELL DNA and 1.4 pg/µg CELL DNA
- INT[…] DNA RI (HBV; 4 µM, 24 hours following the 9th day of treatment): 1 pg/µg CELL DNA and 2 pg/µg CELL DNA
- inhibition of the replication of HBV (HBV): significantly inhibited

SMILES: Nc1nc(=O)n([C@H]2CS[C@@H](CO)O2)cc1F [(+)-FTC, (+)-β-D-2-hydroxymethyl-5-(5-fluorocytosin-1-yl)-1,3-oxathiolane]
- toxicity at the highest concentration used for the toxicity tests (2.2.15 cells): appeared to be toxic
- viability at 10 µM [1, 5]: 90.9%
- viability at 10 µM [1, 6]: 90.5%
- viability at 10 µM [1, 7]: 99.4%
- viability at 30 µM [1, 5]: 81.1%
- viability at 30 µM [1, 6]: 88.1%
- viability at 30 µM [1, 7]: 88.3%
- viability at 100 µM [1, 5]: 77.7%
- viability at 100 µM [1, 6]: 72.1%
- viability at 100 µM [1, 7]: 66.3%
- viability at 300 µM [1, 5]: 43.4%
- viability at 300 µM [1, 6]: 58.5%
- viability at 300 µM [1, 7]: 56.7%
- CC50 at 144 h [2]: > 100 µM
- pEC50 (HIV-2): 7.59
- inhibition at 0.001 µM (HIV-1 (strain LAV)): 3.8%
- inhibition at 0.005 µM (HIV-1 (strain LAV)): -10.6%
- inhibition at 0.01 µM (HIV-1 (strain LAV)): -1.8%
- inhibition at 0.05 µM (HIV-1 (strain LAV)): 11.8%
- inhibition at 0.1 µM (HIV-1 (strain LAV)): 12.7%
- inhibition at 0.5 µM (HIV-1 (strain LAV)): 71.4%
- pEC50 (HIV-1 (strain LAV); read-out: Antiviral EC50): 6.08
- pEC50 (HIV-1 (strain LAV); read-out: EC50): 6.08
- EC50 (HIV-1 (strain LAV)): 0.28 µM
- HBV VIRION DNA DAY 0 (HBV; 10 µM, replicate wells): 58 pg/ml Culture Medium
- HBV Virion DNA DAY 9 (HBV; 10 µM, day 9, sensitivity cutoff 0.1 pg/ml, replicate wells): 0.1 pg/ml Culture Medium
- inhibition of the replication of HBV (HBV): significantly inhibited

SMILES: Cc1cn(C2CSC(CO)O2)c(=O)[nH]c1=O (stereo not shown) [DLS-010]
- CC50 [4]: > 100 µM

SMILES: Cc1cn([C@H]2CS[C@@H](CO)O2)c(=O)nc1N [DLS-011]
- CC50 [4]: > 100 µM

SMILES: Nc1nc(=O)n([C@H]2CS[C@@H](CO)O2)cc1Br [DLS-021]
- CC50 [4]: > 100 µM

SMILES: Nc1nc(=O)n([C@H]2CS[C@@H](CO)O2)cc1Cl [DLS-023]
- CC50 [4]: > 100 µM

SMILES: Nc1nc(=O)n([C@H]2CS[C@@H](CO)O2)cc1I [DLS-026]
- CC50 [4]: > 100 µM

SMILES: O=c1[nH]c(=O)n([C@H]2CS[C@@H](CO)O2)cc1Cl [DLS-028]
- CC50 [4]: > 100 µM

SMILES: Nc1nc(=O)n([C@@H]2CS[C@H](CO)O2)cc1C(F)(F)F [DLS-053]
- CC50 [4]: > 100 µM

Source: patent publication EP1439177B1, “Antiviral activity and resolution of 2-hydroxymethyl-5-(5-fluorocytosin-1-yl)-1,3-oxathiolane” (Emory University, priority 1991, dated 1992)
